From patent publication US20190262363A1, “ANTAGONIST OF MINERALOCORTICOID RECEPTOR FOR THE TREATMENT OF OSTEOARTHRITIS” (INSERM (INSTITUT NATIONAL DE LA SANTÉ ET DE LA RECHERCHE …, priority 2016, published 2019)
“Also recorded” adds a separate entry of the source.

Test system: knee joints of SHHF^cp/cp rats (metabolic syndrome associated osteoarthritis model) and lean SHHF^+/+ rats
Test: Chronic eplerenone treatment in lean SHHF+/+ and MetS SHHFcp/cp rats; knee joint histology and OARSI scoring
Type: in vivo, rat
Source text: In this study were used lean SHHF^+/+ (spontaneously hypertensive heart failure) rats as controls and obese SHHF^cp/cp rats, which have been characterized as a good model for metabolic syndrome (MetS). […] The absence of eple means that the considered rats are part of a control placebo group.
Animals of both lean SHHF^+/+ and MetS SHHF^cp/cp genotypes were divided randomly into two groups. Group I (n=4 for SHHF^+/+ and n=4 for SHHF^cp/cp) was given placebo and group II (n=4 for SHHF^+/+ and n=9 for SHHF^cp/cp) was given 100 mg.kg-1.day-1 of the selective MRA eplerenone (pure active molecule provided by Pfizer) in drinking water from 1.5 months to 12.5 months of age. The knee joints of 1.5- and 12.5- month-old specimens of each group (untreated SHHF^+/+ and SHHF^cp/cp and their treated counterparts) were fixed in 4% paraformaldehyde, decalcified in EDTA-phosphate buffered solution and then embedded in paraffin. […] thick adjacent sections were stained with Toluidine Blue, Hematoxylin and Eosin or submitted to collagen II immunohistochemistry in order to investigate cartilage destruction, osteophyte formation and lesions of the synovial tissue, respectively. The corresponding scores following OARSI guidelines were done blindly by independent researchers.

For COC(=O)[C@@H]1CC2=CC(=O)CC[C@]2(C)[C@@]23O[C@@H]2C[C@@]2(C)[C@@H](CC[C@@]24CCC(=O)O4)[C@H]13 [eplerenone, Pregn-4-ene-7,21-dicarboxylic acid, 9,11-epoxy-17-hydroxy-3-oxo-,y-lactone, methyl ester, (7α,11α,17β)], the “Cartilage histology (toluidine blue): fibrillations and loss of proteoglycans” value (12.5SHHF^cp/cp Eple knee joints vs untreated 12.5SHHF^cp/cp, FIG. 1D vs. 1C) was “markedly reduced fibrillations and loss of proteoglycans”, the “Osteophytes, collagen II immunostaining” value (12.5SHHF^cp/cp Eple knee joints vs untreated 12.5SHHF^cp/cp, FIG. 2D vs. 2C) was “alleviated osteophytes” and the “Synovial tissue histology (Hematoxylin & Eosin): inflammation and fibrosis” value (12.5SHHF^cp/cp Eple knee joints vs untreated 12.5SHHF^cp/cp, FIG. 3D vs. 3C) was “attenuated inflammation and fibrosis of the synovial tissue”. For the same compound, the “OARSI scoring of the joint cartilage degradation (cartilage alterations)” value (12.5SHHF^cp/cp Eple rats vs placebo 12.5SHHF^cp/cp, 100 mg.kg-1.day-1 in drinking water from 1.5 to 12.5 months of age, FIG. 1E) was “prevents the degradation of joint cartilage; also recorded: drastically decreases the cartilage alterations”, the “OARSI scoring of osteophyte (osteophyte formation)” value (12.5SHHF^cp/cp Eple rats vs placebo 12.5SHHF^cp/cp, 100 mg.kg-1.day-1 in drinking water from 1.5 to 12.5 months of age, FIG. 2E) was “reduces osteophyte formation; also recorded: significantly hampers osteophyte formation” and the “OARSI scoring of the joint inflammation (synovial inflammatory and fibrotic events)” value (12.5SHHF^cp/cp Eple rats vs placebo 12.5SHHF^cp/cp, 100 mg.kg-1.day-1 in drinking water from 1.5 to 12.5 months of age, FIG. 3E) was “reduces the joint inflammation; also recorded: markedly reduces the level of inflammatory and fibrotic events”. For the same compound, the Knee joint phenotype (MetS 12.5SHHF^cp/cp Eple rats treated from 1.5 months onward, compared to placebo 12.5SHHF^cp/cp) was “phenotypes very similar to those of their ^12.5SHHF^+/+ counterparts” and the Knee joint phenotype (lean 12.5SHHF^+/+ eple rats, 100 mg.kg-1.day-1 in drinking water from 1.5 to 12.5 months of age) was “displayed normal phenotype”.
